{
  "source": "patent US6521619B2",
  "about": "“Aryl phenylcyclopropyl sulfide derivatives and their use as cell adhesion inhibiting anti-inflammatory and immune suppressive agents” (Icos Corporation, priority 2000, dated 2003)",
  "key": {"[1]": {"tested_on": "JY-8 cells (expressing LFA-1) adhering to immobilized ICAM-1", "assay": "ICAM-1/JY-8 Cell Adhesion Assay (46B)", "type": "cell-based, human", "details": "JY-8 cell adhesion to ICAM-1; for inhibition at 2 µM / % inhibition: @ 2 μM compound (cell); for inhibition at 4 µM: @ 4 μM compound", "method": "Biologically relevant activity of the compounds in this invention was confirmed using a cell-based adhesion assay, (described below as assay 46B) which measured the ability of the present compounds to block the adherence of JY-8 cells (a human EBV-transformed B cell line expressing LFA-1 on its surface) to immobilized ICAM-1.\n46B. ICAM-1 /JY-8 Cell Adhesion Assay\nFor measurement of inhibitory activity in the cell-based adhesion assay, 96-well microtiter plates are coated with 70 μL of recombinant ICAM-1/g (ICOS Corporation) at a concentration of 5 μg/mL in D-PBS w/o Ca^++ or Mg^++ overnight at 4° C. The wells are then washed twice with D-PBS and blocked by addition of 200 μL of D-PBS, 5% fish skin gelatin by incubation for 1 hour at room temperature. Fluorescent tagged JY-8 cells (a human EBV-transformed B cell line expressing LFA-1 on its surface; 50 μL at 2×10^6 cells/ml in RPMI 1640 (standard cell culture medium)/1% fetal bovine serum) are added to the wells. For fluorescent labeling of JY-8 cells, 5×10^6 cells washed once in RPMI 1640 are resuspended in 1 mL of RPMI 1640 containing 2 μM Calceiun AM (MolecularProbes), are incubated at 37° C for 30 minutes and washed once with RPMI-1640/1% fetal bovine serum. Dilutions of compounds to be assayed for ICAM-1/LFA-1 antagonistic activity are prepared in RPMI-1640/1% fetal bovine serum from 10 mM stock solutions in DMSO and 50 μL are added to duplicate wells. Microtiter plates are incubated for 45 minutes at room temperature and the wells are washed gently once with RPMI-1640/1% fetal bovine serum. Fluorescent intensity is measured in a fluorescent plate reader with an excitation wavelength at 485 nm and an emission wavelength at 530 nm. The percent inhibition of a candidate compound at a given concentration is calculated using the following equation: [formula]\nand these concentration/inhibition data are used to generate dose response curves, from which IC50 values are derived."}, "[2]": {"molecular_target": "T1, ICAM-1/LFA-1 interaction (recombinant LFA-1, biotinylated recombinant ICAM-1/Ig) (Homo sapiens, UniProt P20701)", "T1 construct": "Recombinant LFA-1 (100 mL of 0.7 mg/ml, ICOS Corporation) in D-PBS is then added to each well", "T1 sequence (P20701 26-1170)": "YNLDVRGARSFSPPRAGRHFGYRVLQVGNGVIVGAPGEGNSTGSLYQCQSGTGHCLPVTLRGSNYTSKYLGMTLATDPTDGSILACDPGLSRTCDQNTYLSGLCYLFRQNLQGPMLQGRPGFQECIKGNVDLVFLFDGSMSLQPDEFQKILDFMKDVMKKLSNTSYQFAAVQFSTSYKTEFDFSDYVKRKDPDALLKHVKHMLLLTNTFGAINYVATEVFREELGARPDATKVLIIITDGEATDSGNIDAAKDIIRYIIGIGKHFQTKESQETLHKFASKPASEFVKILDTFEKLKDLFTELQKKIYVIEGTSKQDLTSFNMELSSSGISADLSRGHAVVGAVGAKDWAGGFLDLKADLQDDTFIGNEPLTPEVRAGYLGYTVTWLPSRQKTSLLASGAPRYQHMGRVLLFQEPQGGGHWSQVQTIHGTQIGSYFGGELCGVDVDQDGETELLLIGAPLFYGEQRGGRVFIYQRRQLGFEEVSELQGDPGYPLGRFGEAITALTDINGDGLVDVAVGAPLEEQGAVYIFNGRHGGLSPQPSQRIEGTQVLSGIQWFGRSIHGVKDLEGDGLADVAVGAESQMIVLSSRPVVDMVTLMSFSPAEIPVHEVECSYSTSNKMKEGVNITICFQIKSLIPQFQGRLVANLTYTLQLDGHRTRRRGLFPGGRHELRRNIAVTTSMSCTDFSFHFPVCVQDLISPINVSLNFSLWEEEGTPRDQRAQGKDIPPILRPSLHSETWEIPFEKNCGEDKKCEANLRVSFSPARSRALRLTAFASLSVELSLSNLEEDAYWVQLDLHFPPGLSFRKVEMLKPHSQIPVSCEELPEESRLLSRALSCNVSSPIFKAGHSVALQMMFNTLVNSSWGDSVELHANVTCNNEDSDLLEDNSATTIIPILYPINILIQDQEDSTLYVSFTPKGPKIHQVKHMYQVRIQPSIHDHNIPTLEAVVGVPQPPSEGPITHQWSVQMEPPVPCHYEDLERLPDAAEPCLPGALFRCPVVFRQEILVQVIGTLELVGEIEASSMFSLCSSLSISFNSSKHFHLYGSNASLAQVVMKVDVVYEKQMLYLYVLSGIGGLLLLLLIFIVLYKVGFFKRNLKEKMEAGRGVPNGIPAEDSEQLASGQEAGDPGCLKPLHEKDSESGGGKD", "T1 sequence (P05107 23-769 partner)": "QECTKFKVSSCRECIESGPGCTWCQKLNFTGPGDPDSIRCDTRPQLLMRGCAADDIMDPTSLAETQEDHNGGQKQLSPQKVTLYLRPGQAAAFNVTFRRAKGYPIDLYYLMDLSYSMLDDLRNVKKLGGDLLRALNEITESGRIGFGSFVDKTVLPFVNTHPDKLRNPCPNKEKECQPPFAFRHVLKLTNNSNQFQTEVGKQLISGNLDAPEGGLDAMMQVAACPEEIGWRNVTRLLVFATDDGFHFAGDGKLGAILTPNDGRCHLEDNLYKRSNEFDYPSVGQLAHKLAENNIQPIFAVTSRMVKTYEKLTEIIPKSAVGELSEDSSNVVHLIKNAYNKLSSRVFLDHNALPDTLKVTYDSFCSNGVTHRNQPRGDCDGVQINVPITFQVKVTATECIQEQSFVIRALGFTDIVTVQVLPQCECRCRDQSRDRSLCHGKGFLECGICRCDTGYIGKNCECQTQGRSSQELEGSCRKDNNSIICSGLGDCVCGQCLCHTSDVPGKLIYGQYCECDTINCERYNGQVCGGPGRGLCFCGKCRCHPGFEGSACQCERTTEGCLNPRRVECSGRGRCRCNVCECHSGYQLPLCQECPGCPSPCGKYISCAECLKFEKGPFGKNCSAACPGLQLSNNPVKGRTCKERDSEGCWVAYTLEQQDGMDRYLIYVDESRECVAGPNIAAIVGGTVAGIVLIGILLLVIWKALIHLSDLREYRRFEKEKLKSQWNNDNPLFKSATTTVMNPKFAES", "assay": "ICAM-1/LFA-1 Biochemical Interaction Assay (46A)", "type": "binding", "details": "for inhibition at 2 µM: read-out: % inhibition", "method": "Compounds that antagonize the interaction between ICAM-1 and LFA-1 can be identified, and their activities quantitated, using both biochemical and cell-based adhesion assays. A primary biochemical assay, described below as assay 46A, was utilized to measure the ability of the present compounds to block the interaction between the integrin LFA-1 and its adhesion partner ICAM-1.\n46A. ICAM-1/LFA-1 Biochemical Interaction Assay\nIn the biochemical assay, 100 mL of anti-LFA-1 antibody (ICOS Corporation) at a concentration of 5 mg/ml in Dulbecco's phosphate-buffered saline (D-PBS) is used to coat wells of a 96-well microtiter plate overnight at 4° C. The wells are then washed twice with wash buffer (D-PBS w/o Ca^++ or Mg^++, 0.05% Tween 20) and blocked by addition of 200 mL of D-PBS, 5% fish skin gelatin. Recombinant LFA-1 (100 mL of 0.7 mg/ml, ICOS Corporation) in D-PBS is then added to each well. Incubation continues for 1 hour at room temperature and the wells are washed twice with wash buffer. Serial dilutions of compounds being assayed as ICAM-1/LFA-1 antagonists, prepared as 10 mM stock solutions in dimethyl sulfoxide (DMSO), are diluted in D-PBS, 2 mM MgCl2, 1% fish skin gelatin and 50 mL of each dilution added to duplicate wells. This is followed by addition of […] of 0.8 mg/ml biotinylated recombinant ICAM-1/Ig (ICOS Corporation) to the wells and the plates are incubated at room temperature for 1 hour The wells are then washed twice with wash buffer and 100 mL of Europium-labeled Streptavidin (Wallac Oy) diluted 1:100 in Delfia assay buffer (Wallac Oy) are added to the wells. Incubation proceeds for 1 hour at room temperature. […] Incubation proceeds for 5 minutes with constant mixing.\nwhere “background” refers to wells that are not coated with anti-LFA-1 antibody."}},
  "data": [
    {"compound": "CC(C)c1ccccc1Sc1ccc(C2CC2C(=O)N2CCC(C(=O)O)CC2)c(Cl)c1Cl", "note": "(racemic) [Example 18, (±)-(2-Isopropylphenyl)[2,3-dichloro-4-(trans-(2-(4-carboxypiperidin-1-yl)carbonyl)cycloprop-1-yl)phenyl]sulfide]", "values": [
      {"measurement": "inhibition at 2 µM", "setting": "[1]; Homo sapiens", "value": 84, "unit": "%"},
      {"measurement": "inhibition at 2 µM", "setting": "[2]; @ 2 μM compound", "value": 93, "unit": "%"}
    ]},
    {"compound": "O=C(NCCCN1CCCC1=O)C1CC1c1ccc(Sc2ccccc2N2CCCCC2)c(C(F)(F)F)c1", "note": "(racemic) [Example 9, (±)-(2-Piperidin-1-ylphenyl)[2-trifluoromethyl-4-(trans-(2-((3-(1-pyrrolidin-2-onyl)-prop-1-ylamino)carbonyl)cycloprop1-yl)phenyl]sulfide]", "values": [
      {"measurement": "inhibition at 4 µM", "setting": "[1]; Homo sapiens", "value": 76, "unit": "%"},
      {"measurement": "inhibition at 4 µM", "setting": "[2]; @ 4 μM compound", "value": 95, "unit": "%"}
    ]},
    {"compound": "(±)-(2-Piperidin-1-ylphenyl)[2-trifluoromethyl-4-(trans-(2-((3-(1-pyrrolidin-2-onyl)-prop-1-ylamino)carbonyl)cycloprop1-yl)phenyl]sulfide [Example 9]", "values": [
      {"measurement": "% inhibition", "setting": "[1]", "value": 89, "unit": "% @ 2 μM"},
      {"measurement": "% inhibition", "setting": "[2]; @ 2 μM compound", "value": 97, "unit": "% @ 2 μM"}
    ]},
    {"compound": "O=C(NCCCN1CCCC1=O)C1CC1c1ccc(Sc2ccccc2N2CCOCC2)c(Cl)c1", "note": "(racemic) [Example 8, (±)-(2-Morpholin-1-ylphenyl)[2-chloro-4-(trans-(2-((3-(1-pyrrolidin-2-onyl)-prop-1-ylamino)carbonyl)cycloprop-1-yl)phenyl]sulfide]", "values": [
      {"measurement": "inhibition at 4 µM", "setting": "[1]; Homo sapiens", "value": 70, "unit": "%"},
      {"measurement": "inhibition at 2 µM", "setting": "[2]; @ 2 μM compound", "value": 94, "unit": "%"},
      {"measurement": "inhibition at 4 µM", "setting": "[2]; @ 4 μM compound", "value": 94, "unit": "%"}
    ]},
    {"compound": "CC(=O)N1CCN(C(=O)C2CC2c2ccc(Sc3ccccc3C(C)C)c(Cl)c2Cl)CC1", "note": "(racemic) [Example 21, (±)-(2-Isopropylphenyl)[2,3-dichloro-4-(trans-(2-(4-acetylpiperazin-1-yl)carbonyl)cycloprop-1-yl)phenyl]sulfide]", "values": [
      {"measurement": "inhibition at 2 µM", "setting": "[1]; Homo sapiens", "value": 88, "unit": "%"},
      {"measurement": "inhibition at 2 µM", "setting": "[2]; @ 2 μM compound", "value": 94, "unit": "%"}
    ]},
    {"compound": "CN(CCCN1CCCC1=O)C(=O)C1CC1c1ccc(Sc2ccccc2N2CCOCC2)c(C(F)(F)F)c1", "note": "(racemic) [Example 13, (±)-(2-Morpholin-1-ylphenyl)[2-trifluoromethyl-2-(trans-(2-((3-(1-pyrrolidin-2-onyl)-propyl-N-methylamino)carbonyl)cycloprop-1-yl)phenyl]sulfide]", "values": [
      {"measurement": "inhibition at 1 µM", "setting": "[1]; Homo sapiens, @ 1 μM compound (cell)", "value": 86, "unit": "%"},
      {"measurement": "inhibition at 4 µM", "setting": "[2]; @ 4 μM compound", "value": 93, "unit": "%"}
    ]},
    {"compound": "CC(C)c1ccccc1Sc1ccc(C2CC2C(=O)NCCC(=O)O)c(Cl)c1Cl", "note": "(racemic) [Example 16, (±)-(2-Isopropylphenyl)[2,3-dichloro-4-(trans-(2-(2-carboxyethylamino)carbonyl)cycloprop-1-yl)phenyl]sulfide]", "values": [
      {"measurement": "inhibition at 2 µM", "setting": "[1]; Homo sapiens", "value": 88, "unit": "%"},
      {"measurement": "inhibition at 2 µM", "setting": "[2]; @ 2 μM compound", "value": 96, "unit": "%"}
    ]},
    {"compound": "(±)-(3-Morpholin-1-ylphenyl)[2-trifluoromethyl-4-(trans-(2-((3-(1-pyrrolidin-2-onyl)-prop-1-ylamino)carbonyl)cycloprop-1-yl)phenyl]sulfide [Example 11]", "values": [
      {"measurement": "% inhibition", "setting": "[1]", "value": 86, "unit": "% @ 2 μM"},
      {"measurement": "% inhibition", "setting": "[2]; @ 4 μM compound", "value": 96, "unit": "% @ 4 μM"}
    ]}
  ]
}
